The target of this assay is T1, Peptide deformylase (Staphylococcus aureus subsp. aureus Mu50, UniProt P68825).
T1 sequence (P68825 whole entry): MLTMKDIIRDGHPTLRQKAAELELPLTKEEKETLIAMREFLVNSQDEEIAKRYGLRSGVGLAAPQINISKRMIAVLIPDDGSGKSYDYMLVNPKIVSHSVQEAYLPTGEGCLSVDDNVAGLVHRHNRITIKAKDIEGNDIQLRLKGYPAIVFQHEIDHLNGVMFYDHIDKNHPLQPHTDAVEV
As to the kind of experiment: Inhibitory activity towards Ni-peptide deformylase of Staphylococcus aureus.
As to `O=C(CC1Sc2ccccc2N(CC(=O)N2CCCC2)C1=O)NO` (stereo not given), the concentration for half-maximal inhibition (IC50) is 397 nM.

Take `O=C(CC1Sc2ccccc2N(Cc2ccccc2)C1=O)NO` (stereo not given): inhibition was half-maximal at 12 nM (IC50).

As to `CCCCCN1C(=O)C(CC(=O)NO)Sc2ccccc21` (stereo not given), the IC50 was less than 5 nM.

The molecule `O=C(CC1Cc2ccccc2N(CC2CC2)C1=O)NO` (stereo not given) gave an IC50 of 175 nM.

Consider `N#CCN1C(=O)C(CC(=O)NO)Sc2ccccc21` (stereo not given), for which it took 515 nM to reach half-maximal inhibition (IC50).

On to `CN1C(=O)C(CC(=O)NO)Sc2ccccc21` (stereo not given), for which the IC50 stood at 37 nM.

In the case of `O=C(CC1Sc2ccccc2N(CC2CCC2)C1=O)NO` (stereo not given), the half-inhibitory concentration (IC50) was found to be 41 nM.

The molecule `O=C(CC1Sc2ccccc2N(CC2CCCCO2)C1=O)NO` (stereo not given) showed a half-maximal inhibitory concentration (IC50) of 18 nM.

Molecule `CC(C)CCCN1C(=O)C(CC(=O)NO)Sc2ccccc21` (stereo not given) had an IC50 of less than 5 nM.

With `O=C(CC1Sc2ccccc2N(CC(=O)Nc2cc(F)ccc2F)C1=O)NO` (stereo not given), the 50% inhibitory concentration (IC50) was found to be 58 nM.

As to `NNC(=O)CC1Sc2ccccc2NC1=O` (stereo not given), the half-maximal inhibitory concentration (IC50) stood at 330 nM.

In the case of `O=C1Nc2ccccc2SC1CNO` (stereo not given), the IC50 was more than 2000 nM.

As to `O=C(CC1Sc2ccccc2N(CCC2CCCCC2)C1=O)NO` (stereo not given), the IC50 was 57 nM.

In the case of `CC(C)(C)C(=O)CN1C(=O)C(CC(=O)NO)Sc2ccccc21` (stereo not given), the IC50 turned out to be 50 nM.

The molecule `CC(C)CCN1C(=O)C(CC(=O)NO)Sc2ccccc21` (stereo not given) displayed an IC50 of less than 5 nM.

Take `COCCN1C(=O)C(CC(=O)NO)Sc2ccccc21` (stereo not given): the IC50 was less than 5 nM.

As for `O=C(CC1Sc2ccccc2N(CCc2ccccc2)C1=O)NO` (stereo not given), the IC50 was less than 5 nM.

In turn, `O=C(O)CC1Sc2ccccc2NC1=O` (stereo not given) displayed an IC50 of more than 2000 nM.

`O=C(CC1Sc2ccccc2NC1=O)NO` (stereo not given): the half-maximal inhibitory concentration (IC50) is less than 5 nM.

`O=C(CC1Sc2ccccc2N(CCC2OCCO2)C1=O)NO` (stereo not given): the IC50 is less than 5 nM.

The molecule `CON(C)C(=O)CC1Sc2ccccc2NC1=O` (stereo not given) returned a half-maximal inhibitory concentration (IC50) of more than 2000 nM.

Consider `CONC(=O)CC1Sc2ccccc2NC1=O` (stereo not given), for which the 50% inhibitory concentration (IC50) stood at 74 nM.

As to `O=C(CC1C(=O)Nc2ccccc2S1(=O)=O)NO` (stereo not given), the 50% inhibitory concentration (IC50) is more than 2000 nM.

As for `O=C(CC1Sc2ccccc2N(CC(=O)Nc2ccccn2)C1=O)NO` (stereo not given), inhibition was half-maximal at 343 nM (IC50).

The molecule `CCCCC[C@H](CC(=O)NO)C(=O)N[C@H](C(=O)N1CCC[C@H]1CO)C(C)C` [ACTINONIN] returned a half-inhibitory concentration (IC50) of less than 5 nM.

Values taken from ChEMBL document CHEMBL1147628, “Identification of novel potent bicyclic peptide deformylase inhibitors” (Bioorg Med Chem Lett, 2004).
